From ChEMBL document CHEMBL2311407, “Design and synthesis of diazatricyclodecane agonists of the G-protein-coupled receptor 119” (J Med Chem, 2013)
Converted amounts (≈) assume the structure as drawn.

Columns and labels:
[1] = Aqueous solubility of the compound in PBS at pH 1.2; assay type: physicochemical
[2] = Aqueous solubility of the compound in PBS at pH 7.4; assay type: physicochemical

solubility [1]: 6800 µg/mL (≈ 15.6 mM)
solubility [2]: 0.5 µg/mL (≈ 0.00115 mM)
Compound: Cc1ncccc1Oc1ncnc(N2C3CC4CC2CC(C3)N4C(=O)OC2(C)CC2)c1C
